Results: patent publication US5530126A, “Process for the preparation of substituted 6-(pyrazol-3yl)-1,4-benzoxazin-3-ones” (Monsanto Company, priority 1994, dated 1996)

Legend:
Format in all cases: in vivo
Barnyardgrass [1] = assay: Pre-emergence herbicide test; conditions: Echinochloa crus-galli, read-out: % plant inhibition (Bygr); for inhibition at 11210 g/ha: 11.21 kg/ha; for inhibition at 1120 g/ha: 1.12 kg/ha
Method in brief: (§1)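 Seeds or perennial propagules sown on compacted topsoil in pans; known amount of active ingredient in organic solvent (e.g., acetone) or water applied directly to seed bed, then covered with untreated topsoil. Greenhouse, bottom-watered; % inhibition scored about 10-14 days (usually 11 days) after seeding.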

Downy Brome [2] = assay: Pre-emergence herbicide test; conditions: Bromus tectorum, read-out: % plant inhibition (Dobr); for inhibition at 11210 g/ha: 11.21 kg/ha; for inhibition at 1120 g/ha: 1.12 kg/ha
Method in brief: as §1

Indian Mustard [3] = assay: Pre-emergence herbicide test; conditions: Brassica juncea, read-out: % plant inhibition (Inmu); for inhibition at 11210 g/ha: 11.21 kg/ha; for inhibition at 1120 g/ha: 1.12 kg/ha
Method in brief: as §1

Morningglory [4] = assay: Pre-emergence herbicide test; conditions: Ipomoea, read-out: % plant inhibition (Mogl); for inhibition at 11210 g/ha: 11.21 kg/ha; for inhibition at 1120 g/ha: 1.12 kg/ha
Method in brief: as §1

Yellow nutsedge [5] = assay: Pre-emergence herbicide test; conditions: Cyperus, read-out: % plant inhibition (Yens); for inhibition at 11210 g/ha: 11.21 kg/ha; for inhibition at 1120 g/ha: 1.12 kg/ha
Method in brief: as §1

Cocklebur [6] = assay: Pre-emergence herbicide test; conditions: Xanthium strumarium, read-out: % plant inhibition (Cobu); for inhibition at 11210 g/ha: 11.21 kg/ha; for inhibition at 1120 g/ha: 1.12 kg/ha
Method in brief: as §1

Wild buckwheat [7] = assay: Pre-emergence herbicide test; conditions: Fallopia convolvulus, read-out: % plant inhibition (Wibw); for inhibition at 11210 g/ha: 11.21 kg/ha; for inhibition at 1120 g/ha: 1.12 kg/ha
Method in brief: as §1

Velvetleaf [8] = assay: Pre-emergence herbicide test; conditions: Abutilon theophrasti, read-out: % plant inhibition (Vele); for inhibition at 11210 g/ha: 11.21 kg/ha; for inhibition at 1120 g/ha: 1.12 kg/ha
Method in brief: as §1

Annual bluegrass [9] = assay: Pre-emergence herbicide test; conditions: read-out: % plant inhibition (Anbg); for inhibition at 11210 g/ha: 11.21 kg/ha; for inhibition at 1120 g/ha: 1.12 kg/ha
Method in brief: as §1

Seedling johnsongrass [10] = assay: Pre-emergence herbicide test; conditions: Sorghum halepense, read-out: % plant inhibition (Sejg); for inhibition at 11210 g/ha: 11.21 kg/ha; for inhibition at 1120 g/ha: 1.12 kg/ha
Method in brief: as §1

Barnyardgrass [11] = assay: Post-emergence herbicide test; conditions: Echinochloa crus-galli, read-out: % plant inhibition (Bygr); for inhibition at 11210 g/ha: 11.21 kg/ha; for inhibition at 1120 g/ha: 1.12 kg/ha
Method in brief: (§2)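 Post-emergence greenhouse spray: 2–3-wk-old plants in soil pans; atomizer at 170.3 kPa (10 psig); 1870 L/Ha carrier volume, ~0.4% v/v emulsifier. Read-out is % inhibition vs control at 10–14 d (usually 11 d), occasionally also 24–28 d.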

Downy Brome [12] = assay: Post-emergence herbicide test; conditions: Bromus tectorum, read-out: % plant inhibition (Dobr); for inhibition at 11210 g/ha: 11.21 kg/ha; for inhibition at 1120 g/ha: 1.12 kg/ha
Method in brief: as §2

Indian Mustard [13] = assay: Post-emergence herbicide test; conditions: Brassica juncea, read-out: % plant inhibition (Inmu); for inhibition at 11210 g/ha: 11.21 kg/ha; for inhibition at 1120 g/ha: 1.12 kg/ha
Method in brief: as §2

Morningglory [14] = assay: Post-emergence herbicide test; conditions: Ipomoea, read-out: % plant inhibition (Mogl); for inhibition at 11210 g/ha: 11.21 kg/ha; for inhibition at 1120 g/ha: 1.12 kg/ha
Method in brief: as §2

Yellow nutsedge [15] = assay: Post-emergence herbicide test; conditions: Cyperus, read-out: % plant inhibition (Yens); for inhibition at 11210 g/ha: 11.21 kg/ha; for inhibition at 1120 g/ha: 1.12 kg/ha
Method in brief: as §2

Cocklebur [16] = assay: Post-emergence herbicide test; conditions: Xanthium strumarium, read-out: % plant inhibition (Cobu); for inhibition at 11210 g/ha: 11.21 kg/ha; for inhibition at 1120 g/ha: 1.12 kg/ha
Method in brief: as §2

Wild buckwheat [17] = assay: Post-emergence herbicide test; conditions: Fallopia convolvulus, read-out: % plant inhibition (Wibw); for inhibition at 11210 g/ha: 11.21 kg/ha; for inhibition at 1120 g/ha: 1.12 kg/ha
Method in brief: as §2

Velvetleaf [18] = assay: Post-emergence herbicide test; conditions: Abutilon theophrasti, read-out: % plant inhibition (Vele); for inhibition at 11210 g/ha: 11.21 kg/ha; for inhibition at 1120 g/ha: 1.12 kg/ha
Method in brief: as §2

Annual bluegrass [19] = assay: Post-emergence herbicide test; conditions: read-out: % plant inhibition (Anbg); for inhibition at 11210 g/ha: 11.21 kg/ha; for inhibition at 1120 g/ha: 1.12 kg/ha
Method in brief: as §2

Seedling johnsongrass [20] = assay: Post-emergence herbicide test; conditions: Sorghum halepense, read-out: % plant inhibition (Sejg); for inhibition at 11210 g/ha: 11.21 kg/ha; for inhibition at 1120 g/ha: 1.12 kg/ha
Method in brief: as §2

Row | Structure (SMILES) | inhibition at 1120 g/ha (Barnyardgrass [1]) [%] | inhibition at 1120 g/ha (Downy Brome [2]) [%] | inhibition at 1120 g/ha (Indian Mustard [3]) [%] | inhibition at 1120 g/ha (Morningglory [4]) [%] | inhibition at 1120 g/ha (Yellow nutsedge [5]) [%] | inhibition at 1120 g/ha (Cocklebur [6]) [%] | inhibition at 1120 g/ha (Wild buckwheat [7]) [%] | inhibition at 1120 g/ha (Velvetleaf [8]) [%] | inhibition at 1120 g/ha (Annual bluegrass [9]) [%] | inhibition at 1120 g/ha (Seedling johnsongrass [10]) [%] | inhibition at 1120 g/ha (Barnyardgrass [11]) [%] | inhibition at 1120 g/ha (Downy Brome [12]) [%] | inhibition at 1120 g/ha (Indian Mustard [13]) [%] | inhibition at 1120 g/ha (Morningglory [14]) [%] | inhibition at 1120 g/ha (Yellow nutsedge [15]) [%] | inhibition at 1120 g/ha (Cocklebur [16]) [%] | inhibition at 1120 g/ha (Wild buckwheat [17]) [%] | inhibition at 1120 g/ha (Velvetleaf [18]) [%] | inhibition at 1120 g/ha (Annual bluegrass [19]) [%] | inhibition at 1120 g/ha (Seedling johnsongrass [20]) [%] | also measured
1 | Cn1nc(-c2cc(Oc3ccc(C(F)(F)F)cc3Cl)c(Cl)cc2F)c(Cl)c1C(F)(F)F [Compound 203] | – | – | – | – | – | – | – | – | – | – | – | – | – | – | – | – | – | – | – | – | inhibition at 11210 g/ha (Barnyardgrass [1]): 0%; inhibition at 11210 g/ha (Downy Brome [2]): 10%; inhibition at 11210 g/ha (Indian Mustard [3]): 0%; inhibition at 11210 g/ha (Morningglory [4]): 10%; inhibition at 11210 g/ha (Yellow nutsedge [5]): 0%; inhibition at 11210 g/ha (Cocklebur [6]): 20%; inhibition at 11210 g/ha (Wild buckwheat [7]): 0%; inhibition at 11210 g/ha (Velvetleaf [8]): 0%; inhibition at 11210 g/ha (Annual bluegrass [9]): 0%; inhibition at 11210 g/ha (Seedling johnsongrass [10]): 20%; inhibition at 11210 g/ha (Barnyardgrass [11]): 50%; inhibition at 11210 g/ha (Downy Brome [12]): 30%; inhibition at 11210 g/ha (Indian Mustard [13]): 60%; inhibition at 11210 g/ha (Morningglory [14]): 60%; inhibition at 11210 g/ha (Yellow nutsedge [15]): 0%; inhibition at 11210 g/ha (Cocklebur [16]): 60%; inhibition at 11210 g/ha (Wild buckwheat [17]): 90%; inhibition at 11210 g/ha (Velvetleaf [18]): 100%; inhibition at 11210 g/ha (Annual bluegrass [19]): 20%; inhibition at 11210 g/ha (Seedling johnsongrass [20]): 60%
2 | Cn1nc(-c2cc(Oc3ccc(C(F)(F)F)cc3)c(Cl)cc2F)c(Cl)c1C(F)(F)F [Compound 205] | – | – | – | – | – | – | – | – | – | – | – | – | – | – | – | – | – | – | – | – | inhibition at 11210 g/ha (Barnyardgrass [1]): 0%; inhibition at 11210 g/ha (Downy Brome [2]): 0%; inhibition at 11210 g/ha (Indian Mustard [3]): 30%; inhibition at 11210 g/ha (Morningglory [4]): 0%; inhibition at 11210 g/ha (Yellow nutsedge [5]): 0%; inhibition at 11210 g/ha (Cocklebur [6]): 0%; inhibition at 11210 g/ha (Wild buckwheat [7]): 10%; inhibition at 11210 g/ha (Velvetleaf [8]): 10%; inhibition at 11210 g/ha (Annual bluegrass [9]): 0%; inhibition at 11210 g/ha (Seedling johnsongrass [10]): 20%; inhibition at 11210 g/ha (Barnyardgrass [11]): 10%; inhibition at 11210 g/ha (Downy Brome [12]): 50%; inhibition at 11210 g/ha (Indian Mustard [13]): 60%; inhibition at 11210 g/ha (Morningglory [14]): 80%; inhibition at 11210 g/ha (Yellow nutsedge [15]): 0%; inhibition at 11210 g/ha (Cocklebur [16]): 60%; inhibition at 11210 g/ha (Wild buckwheat [17]): 90%; inhibition at 11210 g/ha (Velvetleaf [18]): 100%; inhibition at 11210 g/ha (Annual bluegrass [19]): 40%; inhibition at 11210 g/ha (Seedling johnsongrass [20]): 70%
3 | CCOC(=O)C(C)Oc1cc(-c2nn(C)c(C(F)(F)F)c2Cl)c(F)cc1Cl (stereo not shown) [Compound 229, 2-(2-Chloro-5-(4-chloro-1-methyl-5-(trifluoromethyl)-1H-pyrazol-3-yl)-4-fluorophenoxy)propanoic acid, ethyl ester] | 90 | 100 | 100 | 100 | 60 | 90 | 100 | 100 | 100 | 100 | 100 | 90 | 100 | 100 | 40 | 100 | 100 | 100 | 70 | 100 | –
4 | Cn1nc(-c2cc(OCc3ccccn3)c(Cl)cc2F)c(Cl)c1C(F)(F)F [Compound 251] | 0 | 80 | 20 | 40 | 0 | 30 | 90 | 60 | 50 | 70 | 90 | 100 | 70 | 100 | 10 | 90 | 90 | 100 | 80 | 100 | –
5 | Cn1nc(-c2cc(OCc3ccc(Cl)s3)c(Cl)cc2F)c(Cl)c1C(F)(F)F [Compound 252] | 20 | 60 | 10 | 40 | 0 | 30 | 10 | 20 | 30 | 60 | 90 | 100 | 100 | 100 | 20 | 100 | 100 | 100 | 90 | 100 | –
